This note sets out measurements from PMC10347124, “Exploring the Anticancer Potential of Premna resinosa (Hochst.) Leaf Surface Extract: Discovering New Diterpenes as Heat Shock Protein 70 (Hsp70) Binding Agents” (Plants, 2023).

The target of assay [1] is T1, Hsp70 (Heat Shock Protein 70 1A) (Homo sapiens, UniProt P0DMV8).
T1 construct: gene HSPA1A; recombinant Hsp70 immobilized on CM5 chip
The experiment in a line: SPR (Biacore […]), single-site model. It counts as binding.

Assay [2] deals with T1, Hsp70 (Heat Shock Protein 70 1A). Kind of assay: SPR (Biacore […]), single-site model; positive control. Format: binding.

T1 sequence (P0DMV8 2-641): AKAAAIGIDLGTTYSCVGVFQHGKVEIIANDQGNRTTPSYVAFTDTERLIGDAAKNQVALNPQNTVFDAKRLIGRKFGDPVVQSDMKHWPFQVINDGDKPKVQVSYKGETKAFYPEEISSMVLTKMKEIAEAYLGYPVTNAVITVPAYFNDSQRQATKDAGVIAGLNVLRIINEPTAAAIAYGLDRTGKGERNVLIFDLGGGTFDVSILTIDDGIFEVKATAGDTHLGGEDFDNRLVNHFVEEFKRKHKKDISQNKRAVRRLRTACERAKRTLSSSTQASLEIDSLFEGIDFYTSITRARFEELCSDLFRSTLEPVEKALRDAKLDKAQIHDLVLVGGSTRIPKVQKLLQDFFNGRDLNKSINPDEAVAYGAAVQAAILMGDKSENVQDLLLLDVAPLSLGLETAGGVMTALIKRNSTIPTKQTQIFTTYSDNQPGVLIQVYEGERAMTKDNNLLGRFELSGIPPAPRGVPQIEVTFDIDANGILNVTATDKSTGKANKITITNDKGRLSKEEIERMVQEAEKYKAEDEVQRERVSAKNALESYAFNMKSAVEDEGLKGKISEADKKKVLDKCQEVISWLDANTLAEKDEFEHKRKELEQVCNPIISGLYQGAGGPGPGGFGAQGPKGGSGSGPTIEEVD

What is called Kd is a measure of binding affinity in units of concentration. A higher Kd goes with lower affinity. With `CC1=CCC2C(C)(C)CCCC2(C)C1CC(O)C1=CC(=O)OC1` (single isomer, unassigned; ent-12) [compound 4, ent-12-hydroxylabda-7,13-dien-15,16-olide], in assay [1], the Kd stood at 1000 nM.

Consider `C=C1C(=O)[C@]23[C@H](O)[C@H]1CC[C@H]2[C@@]12CO[C@]3(O)[C@@H](O)[C@@H]1C(C)(C)CC[C@@H]2O` [oridonin], for which, in assay [2], binding was characterised by a dissociation constant (Kd) of 81.4 nM.
